According to US9040687B2, “Process for the preparaton of novel porphyrin derivatives and their use as PDT agents and fluorescence probes” (COUNCIL OF SCIENTIFIC AND IDUSTRIAL RESEARCH, priority 2010, dated 2015):

Assays:
Assay in all cases: MTT assay, cytotoxicity by cellular proliferation
Format in all cases: cell-based
[1] = system: Breast cancer cells (MDA MB 231); conditions: Homo sapiens, cytotoxicity in the light
Procedure: [Worded in the source for another cell line; this cell line is reported under the same test.] (§1) 3, (4,5-Dimethylthiazol-2-yl)-2,5-diphenyltetrazolium bromide (MTT) assay is a standard colorimetric assay for measuring cellular proliferation (cell growth). It was used to determine cytotoxicity of the porphyrin derivatives of the general formulae 1. Human cervical oral cancer cells (SCCl31 cells) (5×10^3 cells well^−1) were added to wells of two 96 well microtiter plate. One for dark cytotoxicity and another for light cytotoxicity with 150 μL DMEM (Dulbecco's Modified Eagle Medium) with 10% serum and incubated for 24 h. Then added 3.125 to 25 μM of porphyrin derivatives of the general formulae 1 in serial dilution (stock 100 mM diluted using DPBS (Dulbecco's Phosphate Buffered Saline) for test, 0.025% DMSO (dimethyl sulphoxide) for control and incubated for 3 h and irradiated in one plate using sodium vapor lamp (70 w for 15 min) while the other plate was kept in dark. After photoirradiation, DPBS was aspirated and 150 μL DMEM with 10% serum was added to each well and incubated is for 48 h. After 48 h of incubation, removed the plates from the incubator and added 10 µL of MIT (5 mg/ml stock) to each well of the plate. […] Read the absorbance at 570 nm. Percentage growth inhibition was calculated as % Growth inhibition=(control-test)/control)×100 […]

[2] = system: oral cancer cells (SCC 131); conditions: Homo sapiens, SCC131, cytotoxicity in the light
Procedure: as §1

SCC 172 = conditions: SCC172, cytotoxicity in the light
HeLa = conditions: Homo sapiens, cytotoxicity in the light
Mia PaCa = conditions: Homo sapiens, MIA PaCa-2, cytotoxicity in the light
MCF 7 = conditions: Homo sapiens, MCF7, cytotoxicity in the light
SiHa = conditions: Homo sapiens, cytotoxicity in the light
HaCaT = conditions: Homo sapiens, cytotoxicity in the light
HCT 116 = conditions: Homo sapiens, cytotoxicity in the light

**Q.** Which results are given for `Oc1cccc(-c2c3nc(c(-c4cccc(O)c4)c4ccc([nH]4)c(-c4cccc(O)c4)c4nc(c(-c5cccc(O)c5)c5ccc2[nH]5)CC4)C=C3)c1` [FOSCAN, 5, 10, 15, 20-tetrakis (meta-hydroxyphenyl)-chlorin, reference compound]?
**A.** IC50 [1]: 13.5 µM; IC50 [2]: 16 µM; IC50 (SCC 172): 12.5 µM; IC50 (HeLa): 22 µM; IC50 (Mia PaCa): 11 µM; IC50 (MCF 7): 13 µM; IC50 (SiHa): 22.5 µM; IC50 (HaCaT): 8 µM; IC50 (HCT 116): 9 µM
